According to patent US10562914B2, “Imidazoles as histone demethylase inhibitors” (Istituto Europeo di Oncologia S.r.l., priority 2016, dated 2020):
Where a name gives a salt, the structure may show the parent alone.

Legend:
[1] = target: T1, human recombinant KDM1A/CoREST protein (Homo sapiens, UniProt O60341); test: Assay of enzyme inhibition of KDM1A (LSD1), TR-FRET; format: biochemical; conditions: 0.25 nM KDM1A/CoREST, 50 nM H3K4 monomethylated peptide, 20 min at RT
T1 construct: made in house; host or cells: E. coli
Method: 2.1 Assay of Enzyme Inhibition of KDM1A (LSD1)
The intensity of the light emission is proportional to the level of biotinylated reaction product. The complex of human recombinant KDM1A/CoREST protein was produced in E. coli as separate proteins and co-purified as previously described.
Demethylase reaction was started by the addition of 50 nM histone H3K4 monomethylated.
The resulting mixture was incubated in the dark for 1 h at RT. Then, TR-FRET signal was read by a fluorimeter (Infinite® F200, Tecan, Männedorf, Swirzerland) (Excitation 320 nm, Emission 665 nm and 620 nm, delay time 50 μs, window time 100 μs).
The inhibitor concentrations ranged from 0.025 to 500 μM (serial 1:3 dilutions). The IC50 was calculated using GraphPad Software.

[2] = system: Human leukemia MV4-11 cells; test: Cell growth, CellTiter-Fluor viability assay, MV4-11; format: cell-based; conditions: 48 h incubation, read-out: IC50 against human leukemia MV4-11 cells
Source text: (§1) CellTiter-Flor® (Promega) is as a nonlytic, single-reagent-addition fluorescence assay that measures the relative number of living cells in a culture population after experimental manipulation. The CellTiter-Fluor™ Cell Viability Assay measures the conserved and constitutive protease activity within live cells and therefore acts as a marker for cell viability.
(§2) Human leukemia MV4-11 cells, (obtained from the Deutsche Sammlung von Mikroorganismen und Zellkulturen, ACC 102) or NB4 cells, (obtained from the Deutsche Sammlung von Mikroorganismen und Zellkulturen) in exponential growth, were incubated for 48 h with different concentrations of the inhibitors. After 48 h a volume of CellTiter-Fluor® Reagent equal to one fifth of volume of cell culture medium was added. The content was mixed and incubates for at least 90 min at 37° C. degree to obtain a stable signal. The fluorescence was recorded using an excitation wavelength of 360 nm and an emission at 535 nm. The IC50 was calculated using GraphPad Software.

human leukemia NB4 cells = test: Cell growth, CellTiter-Fluor viability assay, NB4; format: cell-based; conditions: NB-4, 48 h incubation, read-out: IC50 against human leukemia NB4 cells
Source text: as §1, §2

Structure (SMILES)	IC50 [1] [nM]	IC50 (human leukemia NB4 cells) [µM]	IC50 [2] [µM]
CCc1[nH]c(-c2cc3sccc3n2C)nc1-c1ccccc1 [Example 9, 5-(5-ethyl-4-phenyl-1H-imidazol-2-yl)-4-methyl-thieno[3,2-b]pyrrole]	< 1000	–	–
CC(C)c1[nH]c(-c2cc3sccc3n2C)nc1-c1ccccc1 [Example 10, 5-(5-isopropyl-4-phenyl-1H-imidazol-2-yl)-4-methyl-thieno[3,2-b]pyrrole]	< 1000	–	–
CCn1c(-c2nc(C3CCC3)c[nH]2)cc2sccc21 [Example 12, 5-(4-cyclobutyl-1H-imidazol-2-yl)-4-ethyl-thieno[3,2-b]pyrrole]	< 1000	–	–
CCc1cn(CCOc2ccc(OC3CCNCC3)cc2)c(-c2cc3sccc3n2C)n1 [Example 20, 5-[4-ethyl-1-[2-[4-(4-piperidyloxy)phenoxy]ethyl]imidazol-2-yl]-4-methyl-thieno[3,2-b]pyrrole hydrochloride]	–	< 20	< 10
CCc1cn(CCOc2ccc(OC3CCCNCC3)cc2)c(-c2cc3sccc3n2C)n1 (stereo not shown) [Example 25, 5-[1-[2-[4-(azepan-4-yloxy)phenoxy]ethyl]-4-ethyl-imidazol-2-yl]-4-methyl-thieno[3,2-b]pyrrole hydrochloride]	–	< 20	< 10
CCc1cn(CCCc2ccc(OC3CCNCC3)cc2)c(-c2cc3sccc3n2C)n1 [Example 27, 5-[4-ethyl-1-[3-[4-(4-piperidyloxy)phenyl]propyl]imidazol-2-yl]-4-methyl-thieno[3,2-b]pyrrole hydrochloride]	–	< 20	< 10
Cn1c(-c2nc(C3CCC3)cn2CCOc2ccc(OC3CCNCC3)cc2)cc2sccc21 [Example 29, 5-[4-cyclobutyl-1-[2-[4-(4-piperidyloxy)phenoxy]ethyl]imidazol-2-yl]-4-methyl-thieno[3,2-b]pyrrole hydrochloride]	–	< 20	< 10
CCc1cn(CCCc2ccc(OCC3CCNCC3)cc2)c(-c2cc3sccc3n2C)n1 [Example 42, 5-[4-ethyl-1-[3-[4-(4-piperidylmethoxy)phenyl]propyl]imidazol-2-yl]-4-methyl-thieno[3,2-b]pyrrole hydrochloride]	–	< 10	–
CCc1cn(CCCc2ccc(OC3CCCNCC3)cc2)c(-c2cc3sccc3n2C)n1 (stereo not shown) [Example 44, 5-[1-[3-[4-(azepan-4-yloxy)phenyl]propyl]-4-ethyl-imidazol-2-yl]-4-methyl-thieno[3,2-b]pyrrole hydrochloride]	–	< 10	–
Cn1c(-c2nc(C3CCC3)cn2CCCc2ccc(OC3CCNCC3)cc2)cc2sccc21 [Example 49, 5-[4-cyclobutyl-1-[3-[4-(4-piperidyloxy)phenyl]propyl]imidazol-2-yl]-4-methyl-thieno[3,2-b]pyrrole hydrochloride]	–	< 10	–
CCCc1cnc(-c2cc3sccc3n2C)n1CCOc1ccc(OC2CCNCC2)cc1 [Example 54, 4-methyl-5-[1-[2-[4-(4-piperidyloxy)phenoxy]ethyl]-5-propyl-imidazol-2-yl]thieno[3,2-b]pyrrole]	< 100	–	–
CCc1cnc(-c2cc3sccc3n2C)n1CCCc1ccc(OCC2CCNCC2)c(OCC2CCNCC2)c1 [Example 57, 5-[1-[3-[3,4-bis(4-piperidylmethoxy)phenyl]propyl]-5-ethyl-imidazol-2-yl]-4-methyl-thieno[3,2-b]pyrrole dihydrochloride]	< 100	< 10	–
CCc1cn(CCc2ccc(OC3CCNCC3)cc2)c(-c2cc3sccc3n2C)n1 [Example 58, 5-[4-ethyl-1-[2-[4-(4-piperidyloxy)phenyl]ethyl]imidazol-2-yl]-4-methyl-thieno[3,2-b]pyrrole]	< 100	–	–
Cn1c(-c2ncc(C3CCC3)n2CCCc2ccc(OCC3CCNC3)cc2)cc2sccc21 (stereo not shown) [Example 60, 5-[5-cyclobutyl-1-[3-[4-(pyrrolidin-3-ylmethoxy)phenyl]propyl]imidazol-2-yl]-4-methyl-thieno[3,2-b]pyrrole]	< 100	–	–
Cn1c(-c2ncc(C3CCC3)n2CCCc2ccc(OC3CCCNCC3)cc2)cc2sccc21 (stereo not shown) [Example 62, 5-[1-[3-[4-(azepan-4-yloxy)phenyl]propyl]-5-cyclobutyl-imidazol-2-yl]-4-methyl-thieno[3,2-b]pyrrole hydrochloride]	< 100	–	–

More lines, main results first:

IC50 [1] [nM]	IC50 (human leukemia NB4 cells) [µM]	Structure (SMILES)	IC50 [2] [µM]
< 100	< 20	CCc1cn(CCOc2cccc(OC3CCNCC3)c2)c(-c2cc3sccc3n2C)n1 [Example 18, 5-[4-ethyl-1-[2-[3-(4-piperidyloxy)phenoxy]ethyl]imidazol-2-yl]-4-methyl-thieno[3,2-b]pyrrole hydrochloride]	< 10
< 100	–	CCc1cn(CCOc2cccc(OC3CCCNCC3)c2)c(-c2cc3sccc3n2C)n1 (stereo not shown) [Example 34, 5-[1-[2-[3-(azepan-4-yloxy)phenoxy]ethyl]-4-ethyl-imidazol-2-yl]-4-methyl-thieno[3,2-b]pyrrole hydrochloride]	–
< 100	–	CCc1cnc(-c2cc3sccc3n2C)n1CCOc1cccc(OC2CCCNCC2)c1 (stereo not shown) [Example 35, 5-[1-[2-[3-(azepan-4-yloxy)phenoxy]ethyl]-5-ethyl-imidazol-2-yl]-4-methyl-thieno[3,2-b]pyrrole hydrochloride]	–
< 100	–	Cn1c(-c2ncc(C3CCC3)n2CCOc2ccc(OC3CCCNCC3)cc2)cc2sccc21 (stereo not shown) [Example 37, 5-[1-[2-[4-(azepan-4-yloxy)phenoxy]ethyl]-5-cyclobutyl-imidazol-2-yl]-4-methyl-thieno[3,2-b]pyrrole]	–
< 100	< 10	CCc1cn(CCOc2ccc(OC3CCNCC3)cc2)c(-c2cc3ccsc3n2C)n1 [Example 39, 5-[4-ethyl-1-[2-[4-(4-piperidyloxy)phenoxy]ethyl]imidazol-2-yl]-6-methyl-thieno[2,3-b]pyrrole]	–
< 100	< 10	CCCc1nc(-c2cc3sccc3n2C)n(CCOc2ccc(OC3CCNCC3)cc2)c1-c1ccccc1 [Example 40, 4-methyl-5-[5-phenyl-1-[2-[4-(4-piperidyloxy)phenoxy]ethyl]-4-propyl-imidazol-2-yl]thieno[3,2-b]pyrrole hydrochloride]	–
< 100	< 10	CCCc1c(-c2ccccc2)nc(-c2cc3sccc3n2C)n1CCOc1ccc(OC2CCNCC2)cc1 [Example 41, 4-methyl-5-[4-phenyl-1-[2-[4-(4-piperidyloxy)phenoxy]ethyl]-5-propyl-imidazol-2-yl]thieno[3,2-b]pyrrole]	–
< 100	< 10	CCc1cnc(-c2cc3sccc3n2C)n1CCCc1ccc(OCC2CCNCC2)cc1 [Example 43, 5-[5-ethyl-1-[3-[4-(4-piperidylmethoxy)phenyl]propyl]imidazol-2-yl]-4-methyl-thieno[3,2-b]pyrrole]	–
< 100	< 10	CCc1cnc(-c2cc3sccc3n2C)n1CCCc1ccc(OC2CCCNCC2)cc1 (stereo not shown) [Example 45, 5-[1-[3-[4-(azepan-4-yloxy)phenyl]propyl]-5-ethyl-imidazol-2-yl]-4-methyl-thieno[3,2-b]pyrrole hydrochloride]	–
< 100	< 10	CCc1c(-c2ccccc2)nc(-c2cc3sccc3n2C)n1CCCc1ccc(OC2CCNCC2)cc1 [Example 46, 5-[5-ethyl-4-phenyl-1-[3-[4-(4-piperidyloxy)phenyl]propyl]imidazol-2-yl]-4-methyl-thieno[3,2-b]pyrrole hydrochloride]	–
< 100	< 10	CCc1nc(-c2cc3sccc3n2C)n(CCCc2ccc(OC3CCNCC3)cc2)c1-c1ccccc1 [Example 47, 5-[4-ethyl-5-phenyl-1-[3-[4-(4-piperidyloxy)phenyl]propyl]imidazol-2-yl]-4-methyl-thieno[3,2-b]pyrrole hydrochloride]	–
< 100	< 10	CC(C)c1nc(-c2cc3sccc3n2C)n(CCOc2ccc(OC3CCNCC3)cc2)c1-c1ccccc1 [Example 48, 5-[4-isopropyl-5-phenyl-1-[2-[4-(4-piperidyloxy)phenoxy]ethyl]imidazol-2-yl]-4-methyl-thieno[3,2-b]pyrrole]	–
< 100	< 10	Cn1c(-c2ncc(C3CCC3)n2CCCc2ccc(OC3CCNCC3)cc2)cc2sccc21 [Example 50, 5-[5-cyclobutyl-1-[3-[4-(4-piperidyloxy)phenyl]propyl]imidazol-2-yl]-4-methyl-thieno[3,2-b]pyrrole]	–
< 100	–	Cn1c(-c2nc(-c3ccccc3)cn2CCCc2ccc(OC3CCNCC3)cc2)cc2sccc21 [Example 51, 4-methyl-5-[4-phenyl-1-[3-[4-(4-piperidyloxy)phenyl]propyl]imidazol-2-yl]thieno[3,2-b]pyrrole hydrochloride]	–
< 100	–	CCc1cn(CCCc2ccc(OCC3CCNCC3)c(OCC3CCNCC3)c2)c(-c2cc3sccc3n2C)n1 [Example 52, 5-[1-[3-[3,4-bis(4-piperidylmethoxy)phenyl]propyl]-4-ethyl-imidazol-2-yl]-4-methyl-thieno[3,2-b]pyrrole dihydrochloride]	–
